Reference: ChEMBL document CHEMBL1156648, “Tetrahdroxysqualene from Rhus taitensis shows antimycobacterial activity against Mycobacterium tuberculosis” (J Nat Prod, 2008)
Values after ≈ are worked out from the molar mass of the structure shown. Active and inactive are the calls of the source. The calls are words filed in the database; no cut-off is given here.

Experiments:
[1] = Cytotoxicity against human CEM-TART cells after 72 hrs by MTT assay; assay type: cell-based
[2] = system: Mycobacterium tuberculosis; test: Antimycobacterial activity against Mycobacterium tuberculosis H37Ra after 4 days by MTT assay; assay type: functional; conditions: 96 h
[3] = system: Mycobacterium tuberculosis; test: Antimycobacterial activity against Mycobacterium tuberculosis H37Rv by MTT assay after 4 days by MTT assay; assay type: functional; conditions: 96 h
[4] = system: Mycobacterium tuberculosis; test: Antimycobacterial activity against Mycobacterium tuberculosis H37Rv at 100 ug/ml after 4 days by MTT assay; assay type: functional; conditions: 96 h, read-out: GI
[5] = system: Mycobacterium tuberculosis; test: Antimycobacterial activity against Mycobacterium tuberculosis H37Ra at 200 ug/ml after 4 days by MTT assay; assay type: functional, organism-based

Compound | EC50 [1] [mg/L] | MIC [2] [mg/L] | MIC [3] [mg/L] | inhibition of growth at 100 µg/mL [4] [%] | Activity [5]
COc1cccc2c1C(=O)c1c(O)c3c(c(O)c1C2=O)C[C@@](O)(C(=O)CO)C[C@@H]3O[C@H]1C[C@H](N)[C@H](O)[C@H](C)O1 [DOXORUBICIN] | 0.0044 (≈ 0.0081 µM) |  |  |  | 
CO[C@H]1/C=C/O[C@@]2(C)Oc3c(C)c(O)c4c(O)c(c(/C=N/N5CCN(C)CC5)c(O)c4c3C2=O)NC(=O)/C(C)=C\C=C\[C@H](C)[C@H](O)[C@@H](C)[C@@H](O)[C@@H](C)[C@H](OC(C)=O)[C@@H]1C [RIFAMPIN] |  | 0.0025 (≈ 0.00304 µM) | 0.0025 (≈ 0.00304 µM) |  | 
CC(C)=CCC/C(C)=C/CC/C(C)=C/CC/C=C(\C)CC/C=C(\C)CCC=C(C)C [SQUALENE] |  |  | 100 (≈ 243 µM) | 99 | inactive
C/C(=C\CC/C(C)=C/CC/C=C(\C)CC/C=C(\C)CCC=C(CO)CO)CCC=C(CO)CO [TETRAHYDROXYSQUALENE] | 27.5 (≈ 57.9 µM) | 10 (≈ 21.1 µM) |  |  | 
